These compounds were tested against Human Factor D (Homo sapiens (Human), UniProt P00746) (assay: Human Factor D Assay). Conditions: Factor D inhibition, assay of Example 10; read-out: IC5 (Stars).
Type: biochemical
Summary of the method: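 Serum-purified Factor D (80 nM final) preincubated 5 min at room temperature with compound in 50 mM Tris, 1 M NaCl, pH 7.5. Z-L-Lys-SBz and DTNB added at 100 μM each; A405 followed every 30 s for 30 min. IC50 from nonlinear regression of rates versus concentration.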

Chain of Human Factor D (P00746 26-253): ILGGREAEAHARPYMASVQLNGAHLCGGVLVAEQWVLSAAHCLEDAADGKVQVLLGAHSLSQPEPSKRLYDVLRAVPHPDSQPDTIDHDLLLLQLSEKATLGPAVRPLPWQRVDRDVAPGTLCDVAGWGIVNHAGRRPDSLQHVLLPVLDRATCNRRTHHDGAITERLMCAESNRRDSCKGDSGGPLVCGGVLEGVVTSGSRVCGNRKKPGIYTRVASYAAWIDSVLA

Row | Structure (SMILES) | IC50 [nM]
1 | CC(=O)c1nn(CC(=O)N2[C@H](C(=O)Nc3nc(Br)ccc3C)C[C@@]3(Cn4cnc(C)c4)C[C@@H]23)c2ccc(-c3cnc(C)nc3)cc12 [Compound 314, (1R,3S,5R)-2-(2-(3-Acetyl-5-(2-methylpyrimidin-5-yl)-1H-indazol-1-yl)acetyl)-N-(6-bromo-3-methylpyridin-2-yl)-5-((4-methyl-1H-imidazol-1-yl)methyl)-2-azabicyclo[3.1.0]hexane-3-carboxamide] | < 1000
2 | CC(=O)c1cn(CC(=O)N2[C@H](C(=O)Nc3nc(OC(F)(F)F)ccc3C)C[C@@]3(C)C[C@@H]23)c2c(C)cc(-c3cnc(C)nc3)cc12 [Compound 448, (1R,3S,5R)-2-(2-(3-acetyl-7-methyl-5-(2-methylpyrimidin-5-yl)-1H-indo1-1-yl)acetyl)-5-methyl-N-(3-methyl-6-(trifluoromethoxy)pyridin-2-yl)-2-azabicyclo[3.1.0]hexane-3-carboxamide] | < 1000
3 | CC(=O)c1nn(CC(=O)N2[C@H](C(=O)Nc3nc(Br)ccc3C)C[C@@]3(C)C[C@@H]23)c2cc(C)c(-c3cnc(C)nc3)cc12 [Compound 373, (1R,3S,5R)-2-(2-(3-acetyl-6-methyl-5-(2-methylpyrimidin-5-yl)-1H-indazol-1-yl)acetyl)-N-(6-bromo-3-methylpyridin-2-yl)-5-methyl-2-azabicyclo[3.1.0]hexane-3-carboxamide] | < 1000
4 | CC(=O)c1nn(CC(=O)N2[C@H](C(=O)N[C@@H](C)c3cccc(Cl)c3)C[C@@]3(C)C[C@@H]23)c2ccc(-c3cnc(C)nc3)cc12 [Compound 599, (1R,3S,5R)-2-(2-(3-acetyl-5-(2-methylpyrimidin-5-yl)-1H-indazol-1-yl)acetyl)-N-((S)-1-(3-chlorophenyl)ethyl)-5-methyl-2-azabicyclo[3.1.0]hexane-3-carboxamide] | < 1000

Same assay, conditions: Table 6; Factor D 80 nM, substrate Z-L-Lys-SBz; read-out: IC50

Row | Structure (SMILES) | IC50 [nM]
5 | CC(=O)c1nn(CC(=O)N2C[C@@H](C(F)(F)F)C[C@H]2C(=O)Nc2nc(Br)ccc2C)c2c(C)cc(-c3cnc(C)nc3)cc12 [Compound 175] | < 1000
6 | Cc1ccc(Br)nc1NC(=O)[C@@H]1C[C@@]2(C)C[C@H]2N1C(=O)Cn1nc(C(N)=O)cc1-c1ccco1 [Compound 212, (1R,3S,5R)—N-(6-Bromo-3-methylpyridin-2-yl)-2-(2-(3-carbamoyl-5-(furan-2-yl)-1H-pyrazol-1-yl)acetyl)-5-methyl-2-azabicyclo[3.1.0]hexane-3-carboxamide] | < 1000
7 | CC(=O)c1nn(CC(=O)N2[C@H]3C[C@@]3(CN3CCN(C(C)=O)CC3)C[C@H]2C(=O)Nc2nc(Br)ccc2C)c2ccc(-c3cnc(C)nc3)cc12 [Compound 79, (1S,3S,5S)-2-(2-(3-acetyl-5-(2-methylpyrimidin-5-yl)-1H-indazol-1-yl)acetyl)-5-((4-acetylpiperazin-1-yl)methyl)-N-(6-bromo-3-methylpyridin-2-yl)-2-azabicyclo[3.1.0]hexane-3-carboxamide] | 1000 to 10000
8 | Cc1ncc(-c2ccc3c(c2)c(C(C)O)nn3CC(=O)N2C[C@H]3C[C@H]3[C@H]2C(=O)Nc2nc(Br)ccc2C)cn1 (stereo partly drawn) [Compound 71, (1R,2S,5S)-N-(6-bromo-3-methylpyridin-2-yl)-3-(2-(3-(1-hydroxyethyl)-5-(2-methylpyrimidin-5-yl)-1H-indazol-1-yl)acetyl)-3-azabicyclo[3.1.0]hexane-2-carboxamide] | 1000 to 10000
9 | CC(=O)c1nn(CC(=O)N2[C@H](C(=O)Nc3nc(Br)ccc3C)C[C@@]3(c4cnco4)C[C@@H]23)c2ccc(-c3cnc(C)nc3)cc12 [Compound 197, (1R,3S,5S)-2-(2-(3-Acetyl-5-(2-methylpyrimidin-5-yl)-1H-indazol-1-yl)acetyl)-N-(6-bromo-3-methylpyridin-2-yl)-5-(oxazol-5-yl)-2-azabicyclo[3.1.0]hexane-3-carboxamide] | < 1000

From patent publication US11084800B2 (Achillion Pharmaceuticals, Inc., priority 2017, dated 2021)
